Legend:
Experiment in all cases: cells
[1] = system: DU-145; type: functional; details: Homo sapiens, time 48 hrs
Description: Growth inhibition of human DU-145 cells measured after 48 hrs by sulforhodamine B assay

[2] = system: OVCAR-3; details: Homo sapiens, OVCAR-3, 48 h, read-out: LC50
Description: Cytotoxicity activity against human OVCAR-3 cells assessed as reduction in cell growth measured after 48 hrs by sulforhodamine B assay

[3] = system: NCI-H522; type: functional; details: Homo sapiens, time 48 hrs
Description: Cytostatic activity against human NCI-H522 cells assessed as total growth inhibition measured after 48 hrs by sulforhodamine B assay

[4] = system: PC-3; type: functional; details: Homo sapiens, time 48 hrs
Description: Growth inhibition of human PC-3 cells measured after 48 hrs by sulforhodamine B assay

[5] = system: UO-31; details: Homo sapiens, UO-31, 48 h, read-out: LC50
Description: Cytotoxicity activity against human UO-31 cells assessed as reduction in cell growth measured after 48 hrs by sulforhodamine B assay

[6] = system: SF-268; details: Homo sapiens, SF-268, 48 h, read-out: LC50
Description: Cytotoxicity activity against human SF-268 cells assessed as reduction in cell growth measured after 48 hrs by sulforhodamine B assay

[7] = system: OVCAR-4; type: functional; details: Homo sapiens, time 48 hrs
Description: Growth inhibition of human OVCAR-4 cells measured after 48 hrs by sulforhodamine B assay

[8] = system: HOP-92; details: Homo sapiens, HOP-92, 48 h, read-out: LC50
Description: Cytotoxicity activity against human HOP-92 cells assessed as reduction in cell growth measured after 48 hrs by sulforhodamine B assay

[9] = system: HCT-116; details: Homo sapiens, HCT-116, 48 h, read-out: LC50
Description: Cytotoxicity activity against human HCT-116 cells assessed as reduction in cell growth measured after 48 hrs by sulforhodamine B assay

[10] = system: RPMI-8226; type: functional; details: Homo sapiens, time 48 hrs
Description: Cytostatic activity against human RPMI-8226 cells assessed as total growth inhibition measured after 48 hrs by sulforhodamine B assay

[11] = system: HT-29; type: functional; details: Homo sapiens, time 48 hrs
Description: Cytostatic activity against human HT-29 cells assessed as total growth inhibition measured after 48 hrs by sulforhodamine B assay

[12] = system: DU-145; type: functional; details: Homo sapiens, time 48 hrs; remark: listed apart in the source
Description: Cytostatic activity against human DU-145 cells assessed as total growth inhibition measured after 48 hrs by sulforhodamine B assay

[13] = system: CAKI-1; type: functional; details: Homo sapiens, time 48 hrs
Description: Growth inhibition of human CAKI-1 cells measured after 48 hrs by sulforhodamine B assay

[14] = system: PC-3; details: Homo sapiens, PC-3, 48 h, read-out: LC50
Description: Cytotoxicity activity against human PC-3 cells assessed as reduction in cell growth measured after 48 hrs by sulforhodamine B assay

[15] = system: KM12; type: functional; details: Homo sapiens, time 48 hrs
Description: Growth inhibition of human KM12 cells measured after 48 hrs by sulforhodamine B assay

[16] = system: COLO 205; type: functional; details: Homo sapiens, time 48 hrs
Description: Cytostatic activity against human COLO 205 cells assessed as total growth inhibition measured after 48 hrs by sulforhodamine B assay

[17] = system: TK-10; type: functional; details: Homo sapiens, time 48 hrs
Description: Cytostatic activity against human TK-10 cells assessed as total growth inhibition measured after 48 hrs by sulforhodamine B assay

[18] = system: SK-MEL-28; type: functional; details: Homo sapiens, time 48 hrs
Description: Cytostatic activity against human SK-MEL-28 cells assessed as total growth inhibition measured after 48 hrs by sulforhodamine B assay

[19] = system: SF-295; type: functional; details: Homo sapiens, time 48 hrs
Description: Cytostatic activity against human SF-295 cells assessed as total growth inhibition measured after 48 hrs by sulforhodamine B assay

[20] = system: HCC 2998; details: Homo sapiens, HCC 2998, 48 h, read-out: LC50
Description: Cytotoxicity activity against human HCC 2998 cells assessed as reduction in cell growth measured after 48 hrs by sulforhodamine B assay

[21] = system: SNB-19; type: functional; details: Homo sapiens, time 48 hrs
Description: Cytostatic activity against human SNB-19 cells assessed as total growth inhibition measured after 48 hrs by sulforhodamine B assay

[22] = system: A498; type: functional; details: Homo sapiens, time 48 hrs
Description: Growth inhibition of human A498 cells measured after 48 hrs by sulforhodamine B assay

[23] = system: A498; type: functional; details: Homo sapiens, time 48 hrs; remark: listed apart in the source
Description: Cytostatic activity against human A498 cells assessed as total growth inhibition measured after 48 hrs by sulforhodamine B assay

[24] = system: LOX IMVI; type: functional; details: Homo sapiens, time 48 hrs
Description: Growth inhibition of human LOX IMVI cells measured after 48 hrs by sulforhodamine B assay

[25] = system: MDA-MB-435; type: functional; details: Homo sapiens, time 48 hrs
Description: Growth inhibition of human MDA-MB-435 cells measured after 48 hrs by sulforhodamine B assay

[26] = system: SK-MEL-5; type: functional; details: Homo sapiens, time 48 hrs
Description: Growth inhibition of human SK-MEL-5 cells measured after 48 hrs by sulforhodamine B assay

[27] = system: MDA-MB-468; details: Homo sapiens, MDA-MB-468, 48 h, read-out: LC50
Description: Cytotoxicity activity against human MDA-MB-468 cells assessed as reduction in cell growth measured after 48 hrs by sulforhodamine B assay

[28] = system: T47D; details: Homo sapiens, 48 h, read-out: LC50
Description: Cytotoxicity activity against human T47D cells assessed as reduction in cell growth measured after 48 hrs by sulforhodamine B assay

[29] = system: HCT-15; details: Homo sapiens, HCT-15, 48 h, read-out: LC50
Description: Cytotoxicity activity against human HCT-15 cells assessed as reduction in cell growth measured after 48 hrs by sulforhodamine B assay

[30] = system: DU-145; details: Homo sapiens, DU-145, 48 h, read-out: LC50
Description: Cytotoxicity activity against human DU-145 cells assessed as reduction in cell growth measured after 48 hrs by sulforhodamine B assay

[31] = system: SK-MEL-5; details: Homo sapiens, SK-MEL-5, 48 h, read-out: LC50
Description: Cytotoxicity activity against human SK-MEL-5 cells assessed as reduction in cell growth measured after 48 hrs by sulforhodamine B assay

[32] = system: CCRF-CEM; type: functional; details: Homo sapiens, time 48 hrs
Description: Cytostatic activity against human CCRF-CEM cells assessed as total growth inhibition measured after 48 hrs by sulforhodamine B assay

[33] = system: KM12; type: functional; details: Homo sapiens, time 48 hrs; remark: listed apart in the source
Description: Cytostatic activity against human KM12 cells assessed as total growth inhibition measured after 48 hrs by sulforhodamine B assay

[34] = system: A498; details: Homo sapiens, A498, 48 h, read-out: LC50
Description: Cytotoxicity activity against human A498 cells assessed as reduction in cell growth measured after 48 hrs by sulforhodamine B assay

[35] = system: ACHN; details: Homo sapiens, 48 h, read-out: LC50
Description: Cytotoxicity activity against human ACHN cells assessed as reduction in cell growth measured after 48 hrs by sulforhodamine B assay

[36] = system: NCI/ADR-RES; type: functional; details: Homo sapiens, time 48 hrs
Description: Cytostatic activity against human NCI/ADR-RES cells assessed as total growth inhibition measured after 48 hrs by sulforhodamine B assay

[37] = system: HCT-116; type: functional; details: Homo sapiens, time 48 hrs
Description: Growth inhibition of human HCT-116 cells measured after 48 hrs by sulforhodamine B assay

[38] = system: BT-549; type: functional; details: Homo sapiens, time 48 hrs
Description: Cytostatic activity against human BT-549 cells assessed as total growth inhibition measured after 48 hrs by sulforhodamine B assay

[39] = system: HOP-62; type: functional; details: Homo sapiens, time 48 hrs
Description: Growth inhibition of human HOP-62 cells measured after 48 hrs by sulforhodamine B assay

[40] = system: T47D; type: functional; details: Homo sapiens, time 48 hrs
Description: Growth inhibition of human T47D cells measured after 48 hrs by sulforhodamine B assay

[41] = system: NCI/ADR-RES; details: Homo sapiens, 48 h, read-out: LC50
Description: Cytotoxicity activity against human NCI/ADR-RES cells assessed as reduction in cell growth measured after 48 hrs by sulforhodamine B assay

[42] = system: ACHN; type: functional; details: Homo sapiens, time 48 hrs
Description: Growth inhibition of human ACHN cells measured after 48 hrs by sulforhodamine B assay

[43] = system: 786-0; type: functional; details: Homo sapiens, time 48 hrs
Description: Growth inhibition of human 786-0 cells measured after 48 hrs by sulforhodamine B assay

[44] = system: NCI-H23; type: functional; details: Homo sapiens, time 48 hrs
Description: Growth inhibition of human NCI-H23 cells measured after 48 hrs by sulforhodamine B assay

[45] = system: HT-29; type: functional; details: Homo sapiens, time 48 hrs; remark: listed apart in the source
Description: Growth inhibition of human HT-29 cells measured after 48 hrs by sulforhodamine B assay

[46] = system: NCI-H322M; details: Homo sapiens, 48 h, read-out: LC50
Description: Cytotoxicity activity against human NCI-H322M cells assessed as reduction in cell growth measured after 48 hrs by sulforhodamine B assay

[47] = system: SN12C; type: functional; details: Homo sapiens, time 48 hrs
Description: Cytostatic activity against human SN12C cells assessed as total growth inhibition measured after 48 hrs by sulforhodamine B assay

[48] = system: MDA-MB-435; details: Homo sapiens, MDA-MB-435, 48 h, read-out: LC50
Description: Cytotoxicity activity against human MDA-MB-435 cells assessed as reduction in cell growth measured after 48 hrs by sulforhodamine B assay

[49] = system: UACC-257; details: Homo sapiens, UACC-257, 48 h, read-out: LC50
Description: Cytotoxicity activity against human UACC-257 cells assessed as reduction in cell growth measured after 48 hrs by sulforhodamine B assay

[50] = system: SN12C; details: Homo sapiens, 48 h, read-out: LC50
Description: Cytotoxicity activity against human SN12C cells assessed as reduction in cell growth measured after 48 hrs by sulforhodamine B assay

[51] = system: OVCAR-5; details: Homo sapiens, OVCAR-5, 48 h, read-out: LC50
Description: Cytotoxicity activity against human OVCAR-5 cells assessed as reduction in cell growth measured after 48 hrs by sulforhodamine B assay

[52] = system: SK-OV-3; details: Homo sapiens, SK-OV-3, 48 h, read-out: LC50
Description: Cytotoxicity activity against human SK-OV-3 cells assessed as reduction in cell growth measured after 48 hrs by sulforhodamine B assay

[53] = system: UACC-257; type: functional; details: Homo sapiens, time 48 hrs
Description: Growth inhibition of human UACC-257 cells measured after 48 hrs by sulforhodamine B assay

[54] = system: HCC 2998; type: functional; details: Homo sapiens, time 48 hrs
Description: Growth inhibition of human HCC 2998 cells measured after 48 hrs by sulforhodamine B assay

[55] = system: RXF 393; type: functional; details: Homo sapiens, time 48 hrs
Description: Cytostatic activity against human RXF 393 cells assessed as total growth inhibition measured after 48 hrs by sulforhodamine B assay

[56] = system: SK-OV-3; type: functional; details: Homo sapiens, time 48 hrs
Description: Cytostatic activity against human SK-OV-3 cells assessed as total growth inhibition measured after 48 hrs by sulforhodamine B assay

[57] = system: HOP-92; type: functional; details: Homo sapiens, time 48 hrs
Description: Cytostatic activity against human HOP-92 cells assessed as total growth inhibition measured after 48 hrs by sulforhodamine B assay

[58] = system: SK-MEL-2; type: functional; details: Homo sapiens, time 48 hrs
Description: Cytostatic activity against human SK-MEL-2 cells assessed as total growth inhibition measured after 48 hrs by sulforhodamine B assay

[59] = system: HCT-15; type: functional; details: Homo sapiens, time 48 hrs
Description: Cytostatic activity against human HCT-15 cells assessed as total growth inhibition measured after 48 hrs by sulforhodamine B assay

[60] = system: COLO 205; details: Homo sapiens, COLO 205, 48 h, read-out: LC50
Description: Cytotoxicity activity against human COLO 205 cells assessed as reduction in cell growth measured after 48 hrs by sulforhodamine B assay

[61] = system: Hs-578T; details: Homo sapiens, 48 h, read-out: LC50
Description: Cytotoxicity activity against human Hs-578T cells assessed as reduction in cell growth measured after 48 hrs by sulforhodamine B assay

[62] = system: A549; type: functional; details: Homo sapiens, time 48 hrs
Description: Cytostatic activity against human A549 cells assessed as total growth inhibition measured after 48 hrs by sulforhodamine B assay

Structure (SMILES): CCOC(=O)c1ccc(N/N=C/c2cn(-c3ccc(S(N)(=O)=O)cc3)nc2-c2ccc(C)cc2)cc1
- GI50 [1]: 5.06 µM
- CC50 [2]: 62.6 µM
- TGI [3]: 2.07 µM
- GI50 [4]: 3.13 µM
- CC50 [5]: > 100 µM
- CC50 [6]: > 100 µM
- GI50 [7]: 7.08 µM
- CC50 [8]: > 100 µM
- CC50 [9]: 54.2 µM
- TGI [10]: 3.24 µM
- TGI [11]: 8.38 µM
- TGI [12]: 24.4 µM
- GI50 [13]: 2.07 µM
- CC50 [14]: > 100 µM
- GI50 [15]: 2.1 µM
- TGI [16]: 44.3 µM
- TGI [17]: > 100 µM
- TGI [18]: 19.6 µM
- TGI [19]: 24.8 µM
- CC50 [20]: 8.71 µM
- TGI [21]: 28.1 µM
- GI50 [22]: 7.62 µM
- TGI [23]: 31.8 µM
- GI50 [24]: 1.71 µM
- GI50 [25]: 2.87 µM
- GI50 [26]: 2.99 µM
- CC50 [27]: 99.3 µM
- CC50 [28]: > 100 µM
- CC50 [29]: 9.53 µM
- CC50 [30]: > 100 µM
- CC50 [31]: 40.2 µM
- TGI [32]: 57.4 µM
- TGI [33]: 4.59 µM
- CC50 [34]: > 100 µM
- CC50 [35]: > 100 µM
- TGI [36]: 10.9 µM
- GI50 [37]: 3.11 µM
- TGI [38]: 40.6 µM
- GI50 [39]: 6.55 µM
- GI50 [40]: 3.89 µM
- CC50 [41]: > 100 µM
- GI50 [42]: 3.04 µM
- GI50 [43]: 2.42 µM
- GI50 [44]: 3.26 µM
- GI50 [45]: 2.97 µM
- CC50 [46]: > 100 µM
- TGI [47]: 58.6 µM
- CC50 [48]: 70.2 µM
- CC50 [49]: > 100 µM
- CC50 [50]: > 100 µM
- CC50 [51]: 63.6 µM
- CC50 [52]: > 100 µM
- GI50 [53]: 13.2 µM
- GI50 [54]: 2.05 µM
- TGI [55]: 4.19 µM
- TGI [56]: > 100 µM
- TGI [57]: 2.79 µM
- TGI [58]: 40.6 µM
- TGI [59]: 4.23 µM
- CC50 [60]: > 100 µM
- CC50 [61]: > 100 µM
- TGI [62]: 4.07 µM

From ChEMBL document CHEMBL5634115, “Exploring novel anticancer pyrazole benzenesulfonamides featuring tail approach strategy as carbonic anhydrase inhibitors” (Eur J Med Chem, 2023)
